This is an account of results in patent US20230159509A1 (Amathus Therapeutics, Inc., priority 2020, published 2023).

The target in this experiment is T1, TRAP1 enzyme (Homo sapiens, UniProt Q12931).
T1 construct: 150 nM Trap1 enzyme was incubated with various concentrations of the test compound
T1 sequence (Q12931 60-704): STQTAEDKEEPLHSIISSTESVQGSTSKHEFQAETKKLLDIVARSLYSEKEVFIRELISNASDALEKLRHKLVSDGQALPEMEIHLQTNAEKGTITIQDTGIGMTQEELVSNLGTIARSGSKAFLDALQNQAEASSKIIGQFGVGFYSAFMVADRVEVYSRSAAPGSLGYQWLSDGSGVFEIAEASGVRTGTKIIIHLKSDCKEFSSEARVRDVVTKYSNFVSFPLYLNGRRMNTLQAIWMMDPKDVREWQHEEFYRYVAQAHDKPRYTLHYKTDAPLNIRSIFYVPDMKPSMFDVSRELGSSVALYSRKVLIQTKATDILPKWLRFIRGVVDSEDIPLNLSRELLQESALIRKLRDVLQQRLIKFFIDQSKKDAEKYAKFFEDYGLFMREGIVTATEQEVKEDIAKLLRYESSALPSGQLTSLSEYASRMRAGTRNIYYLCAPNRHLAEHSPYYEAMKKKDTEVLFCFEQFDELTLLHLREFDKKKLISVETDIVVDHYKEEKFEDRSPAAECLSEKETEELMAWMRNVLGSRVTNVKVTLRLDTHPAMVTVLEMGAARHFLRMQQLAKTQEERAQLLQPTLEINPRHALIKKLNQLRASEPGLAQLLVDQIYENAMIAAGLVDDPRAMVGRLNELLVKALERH
Description: ADP Glo assay of TRAP1 ATPase activity. In kind it is biochemical. The conditions noted are these: 1 h; compound concentration 50 μM; read-out: ADP-Glo Percent Activation at 50 μM. In short, it runs like this: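 Compound (0.79–100 μM) was preincubated 30 min at 37° C with 150 nM TRAP1 in 25 mM Pipes pH 7.5, 40 mM KCl, 0.05 mM MgCl2. Reaction started with 20 μM ATP, 60 min at 37° C. ADP measured by luminescence against a standard curve; activation fitted sigmoidally for EC50 and Emax.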

In the case of `COc1ncc(NC(=O)c2cccc3c2C(=O)NC3)cc1S(=O)(=O)Nc1c(C)cccc1C` [compound 2719], the activation at 50 µM fell in the range of 151 to 180%.

For `COc1ncc(NC(=O)c2snnc2C2CC2)cc1S(=O)(=O)Nc1c(C)cccc1C` [compound 2720], the activation at 50 µM fell in the range of 181 to 352%.

Turning to `COc1ncc(NC(=O)c2cn[nH]c2C)cc1S(=O)(=O)Nc1c(C)cccc1C` [compound 2724], the activation at 50 µM was 120 to 150%. As for `COc1ncc(NC(=O)c2noc3c2CCCC3)cc1S(=O)(=O)Nc1c(C)cccc1C` [compound 2725], the activation at 50 µM lay in the range of 181 to 352%.

`CCCc1onc(C)c1C(=O)Nc1cnc(OC)c(S(=O)(=O)Nc2c(C)cccc2C)c1` [compound 2726]: the activation at 50 µM lay in the range of 181 to 352%. The same measure for `COc1ncc(NC(=O)c2ccc3c(c2)NC(=O)C3)cc1S(=O)(=O)Nc1c(C)cccc1C` [compound 2727]: 181 to 352%. In the case of `COc1ncc(NC(=O)c2ccnc(N3CCCCC3)c2)cc1S(=O)(=O)Nc1c(C)cccc1C` [compound 2729], the activation at 50 µM lay within 181 to 352%. With `COc1ncc(NC(=O)c2cc(Cl)n[nH]2)cc1S(=O)(=O)Nc1c(C)cccc1C` [compound 2730], the activation at 50 µM was 181 to 352%. With `COc1ncc(NC(=O)c2[nH]cnc2C)cc1S(=O)(=O)Nc1c(C)cccc1C` [compound 2731] the figure was 120 to 150%; with `COc1ncc(NC(=O)c2cc3[nH]c(=O)[nH]c(=O)n3c2)cc1S(=O)(=O)Nc1c(C)cccc1C` [compound 2732], 151 to 180%; with `COc1ncc(NC(=O)c2ocnc2C)cc1S(=O)(=O)Nc1c(C)cccc1C` [compound 2733], 151 to 180%. For the compound `COc1ncc(NC(=O)c2nnsc2C(C)C)cc1S(=O)(=O)Nc1c(C)cccc1C` [compound 2734], the activation at 50 µM lay within 181 to 352%. The same measure for `COc1ncc(NC(=O)c2cc[nH]c3nccc2-3)cc1S(=O)(=O)Nc1c(C)cccc1C` [compound 2735]: 181 to 352%.

For the compound `COc1ncc(NC(=O)c2n[nH]c3c2CCCC3)cc1S(=O)(=O)Nc1c(C)cccc1C` [compound 2736], the activation at 50 µM lay within 181 to 352%. For `COc1ncc(NC(=O)c2cnc(N(C)C)nc2)cc1S(=O)(=O)Nc1c(C)cccc1C` [compound 2737], the activation at 50 µM was 120 to 150%. With `COc1ncc(NC(=O)c2cc(C)on2)cc1S(=O)(=O)Nc1c(C)cccc1C` [compound 2738] the figure was 151 to 180%. Turning to `COc1ncc(NC(=O)c2cnn3c2SCC3)cc1S(=O)(=O)Nc1c(C)cccc1C` [compound 2740], the activation at 50 µM is 181 to 352%. On to `COc1ncc(NC(=O)c2ccon2)cc1S(=O)(=O)Nc1c(C)cccc1C` [compound 2741], for which the activation at 50 µM fell in the range of 120 to 150%. For `COc1ncc(NC(=O)c2ccc(N3CCN(C)CC3)c(F)c2)cc1S(=O)(=O)Nc1c(C)cccc1C` [compound 2742], the activation at 50 µM was in the range of 181 to 352%. `COc1ncc(NC(=O)c2coc(C3CCCCC3)n2)cc1S(=O)(=O)Nc1c(C)cccc1C` [compound 2743]: the activation at 50 µM was in the range of 151 to 180%.

As for `COc1ncc(NC(=O)c2ccnc(N3CCOCC3)c2)cc1S(=O)(=O)Nc1c(C)cccc1C` [compound 2744], the activation at 50 µM is 181 to 352%. Take `COc1ncc(NC(=O)c2ccc(C3CCN(C)CC3)cc2)cc1S(=O)(=O)Nc1c(C)cccc1C` [compound 2745]: the activation at 50 µM lay within 151 to 180%. With `COc1ncc(NC(=O)c2ccc(NC(C)=O)cc2)cc1S(=O)(=O)Nc1c(C)cccc1C` [compound 2746] the figure was 181 to 352%. `COc1ncc(NC(=O)c2cc(OC)n(C)n2)cc1S(=O)(=O)Nc1c(C)cccc1C` [compound 2747]: the activation at 50 µM was in the range of 151 to 180%.

With `COc1ncc(NC(=O)c2cc(C)[nH]n2)cc1S(=O)(=O)Nc1c(C)cccc1C` [compound 2749], the activation at 50 µM was in the range of 151 to 180%. As for `CCn1cc(C(=O)Nc2cnc(OC)c(S(=O)(=O)Nc3c(C)cccc3C)c2)cn1` [compound 2750], the activation at 50 µM lay in the range of 120 to 150%.

In the case of `COc1ncc(NC(=O)c2ccc(CN3CCCC3)cc2)cc1S(=O)(=O)Nc1c(C)cccc1C` [compound 2751], the activation at 50 µM is 120 to 150%. With `CCc1noc(C)c1C(=O)Nc1cnc(OC)c(S(=O)(=O)Nc2c(C)cccc2C)c1` [compound 2752], the activation at 50 µM lay in the range of 120 to 150%.

`COc1ncc(NC(=O)c2ncc[nH]2)cc1S(=O)(=O)Nc1c(C)cccc1C` [compound 2753]: the activation at 50 µM lay in the range of 120 to 150%. In the case of `COc1ncc(NC(=O)c2cc(C)no2)cc1S(=O)(=O)Nc1c(C)cccc1C` [compound 2754], the activation at 50 µM was 120 to 150%. The same measure for `COc1ncc(NC(=O)c2cn(C(C)(C)C)nn2)cc1S(=O)(=O)Nc1c(C)cccc1C` [compound 2755]: 151 to 180%. The same measure for `COc1ncc(NC(=O)c2n[nH]cc2C)cc1S(=O)(=O)Nc1c(C)cccc1C` [compound 2756]: 151 to 180%; for `COc1ncc(NC(=O)c2nnsc2C2CC2)cc1S(=O)(=O)Nc1c(C)cccc1C` [compound 2758]: 151 to 180%; for `COc1ncc(NC(=O)c2cccnc2N2CCOCC2)cc1S(=O)(=O)Nc1c(C)cccc1C` [compound 2759]: 181 to 352%.

As for `COc1ncc(NC(=O)c2ccc(NS(C)(=O)=O)cc2)cc1S(=O)(=O)Nc1c(C)cccc1C` [compound 2761], the activation at 50 µM is 181 to 352%. The same measure for `COc1ncc(NC(=O)c2cnn(C)c2OC)cc1S(=O)(=O)Nc1c(C)cccc1C` [compound 2762]: 120 to 150%. The same measure for `COc1ncc(NC(=O)c2ccc(N3CCN(C)CC3)c(Cl)c2)cc1S(=O)(=O)Nc1c(C)cccc1C` [compound 2764]: 181 to 352%. In the case of `COc1ncc(NC(=O)c2ccc(CO)cc2)cc1S(=O)(=O)Nc1c(C)cccc1C` [compound 2766], the activation at 50 µM is 151 to 180%.

In the case of `COc1ncc(NC(=O)c2cccc(CO)c2)cc1S(=O)(=O)Nc1c(C)cccc1C` [compound 2767], the activation at 50 µM lay within 181 to 352%.

In the case of `COc1nc(C(F)(F)F)c(C(=O)Nc2cnc(OC)c(S(=O)(=O)Nc3c(C)cccc3C)c2)s1` [compound 2768], the activation at 50 µM lay within 181 to 352%. The same measure for `CCCN1CCN(c2ccc(C(=O)Nc3cnc(OC)c(S(=O)(=O)Nc4c(C)cccc4C)c3)cc2)CC1` [compound 2769]: 181 to 352%. As to `COc1ncc(NC(=O)c2ccc(CN3CCCCC3)cc2)cc1S(=O)(=O)Nc1c(C)cccc1C` [compound 2770], the activation at 50 µM was in the range of 151 to 180%. With `COc1ncc(NC(=O)c2cn3c(n2)CCCC3)cc1S(=O)(=O)Nc1c(C)cccc1C` [compound 2771] the figure was 151 to 180%; with `COc1ncc(NC(=O)c2nccn2C)cc1S(=O)(=O)Nc1c(C)cccc1C` [compound 2772], 120 to 150%; with `COc1ncc(NC(=O)c2ccc(N3CCN(C)CC3)cc2Cl)cc1S(=O)(=O)Nc1c(C)cccc1C` [compound 2774], 181 to 352%. The same measure for `COc1ncc(NC(=O)c2ccc(N3CCN(C)CC3)nc2)cc1S(=O)(=O)Nc1c(C)cccc1C` [compound 2775]: 181 to 352%; for `COc1ncc(NC(=O)c2cnn(C)c2C)cc1S(=O)(=O)Nc1c(C)cccc1C` [compound 2776]: 120 to 150%; for `COc1ncc(NC(=O)c2csnn2)cc1S(=O)(=O)Nc1c(C)cccc1C` [compound 2777]: 120 to 150%. With `COc1ncc(NC(=O)c2[nH]ncc2Cl)cc1S(=O)(=O)Nc1c(C)cccc1C` [compound 2779] the figure was 151 to 180%. With `COc1ncc(NC(=O)c2nnsc2C)cc1S(=O)(=O)Nc1c(C)cccc1C` [compound 2780], the activation at 50 µM lay within 151 to 180%. With `COc1ncc(NC(=O)c2ccno2)cc1S(=O)(=O)Nc1c(C)cccc1C` [compound 2781] the figure was 120 to 150%; with `COc1ncc(NC(=O)c2cccc(N3CCOCC3)c2C)cc1S(=O)(=O)Nc1c(C)cccc1C` [compound 2782], 181 to 352%.

Turning to `COc1ncc(NC(=O)c2cccc(NC(=O)N(C)C)c2)cc1S(=O)(=O)Nc1c(C)cccc1C` [compound 2784], the activation at 50 µM lay in the range of 181 to 352%. Turning to `COCc1c[nH]c(C(=O)Nc2cnc(OC)c(S(=O)(=O)Nc3c(C)cccc3C)c2)c1` [compound 2785], the activation at 50 µM fell in the range of 120 to 150%. Consider `CCc1cc(C(=O)Nc2cnc(OC)c(S(=O)(=O)Nc3c(C)cccc3C)c2)nn1C` [compound 2786], for which the activation at 50 µM fell in the range of 181 to 352%. The same measure for `COc1ncc(NC(=O)c2ccc(C(C)(C)O)cc2)cc1S(=O)(=O)Nc1c(C)cccc1C` [compound 2787]: 151 to 180%. The same measure for `COc1ncc(NC(=O)c2ccc(N(C)C)nc2)cc1S(=O)(=O)Nc1c(C)cccc1C` [compound 2788]: 181 to 352%. The same measure for `COc1ncc(NC(=O)c2cnccc2N(C)C)cc1S(=O)(=O)Nc1c(C)cccc1C` [compound 2789]: 120 to 150%. Take `COc1nc2c(cc1C(=O)Nc1cnc(OC)c(S(=O)(=O)Nc3c(C)cccc3C)c1)CCC2` [compound 2790]: the activation at 50 µM is 181 to 352%.
